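Values below derive from 48-hour exposures of cells grown in 96-well plates, with endpoints linearly interpolated between the two concentrations bracketing the appropriate inhibition level. TGI: total growth inhibition.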 Bounds are passed on as bounds.

Among the test systems are NCI-H460 lung; NCI-H23 lung; EKVX NSCLC; SNB-75 CNS; OVCAR-8 ovarian; SR leukemia; HL-60(TB) leukemia; SK-MEL-2 melanoma; SN12C renal; UO-31 renal; RPMI-8226 leukemia; OVCAR-3 ovarian; MALME-3M melanoma; A498 renal; MDA-MB-435; MDA-MB-231 breast.
What all share (assay): growth of human tumour cells (NCI), 48 h

Regarding `O=C(NNC(=S)Nc1ccccc1)c1nsc2ccccc12`, the TGI is above 100 µM in the experiment with NCI-H460 lung; above 100 µM in the experiment with NCI-H23 lung; above 100 µM in the experiment on EKVX NSCLC; 65.6 µM in the experiment with SNB-75 CNS; above 100 µM in the experiment on OVCAR-8 ovarian; 91.1 µM with SR leukemia. Moreover, the TGI with HL-60(TB) leukemia is 53.8 µM; in the experiment on SK-MEL-2 melanoma, above 100 µM; in the experiment on SN12C renal, above 100 µM; in the experiment with UO-31 renal, 75.4 µM; in the experiment with RPMI-8226 leukemia it was above 100 µM; in the experiment with OVCAR-3 ovarian it was 35.1 µM.
Regarding `CSC(SC)=C(C#N)C(=O)Nc1cccc(Cl)c1`, the TGI in the experiment on NCI-H460 lung, in the experiment on MALME-3M melanoma, in the experiment with EKVX NSCLC, in the experiment with SNB-75 CNS, in the experiment with OVCAR-8 ovarian and in the experiment with A498 renal was above 100 µM in each case. For the same molecule, the TGI is above 100 µM in the experiment with MDA-MB-435; 35.2 µM in the experiment with HL-60(TB) leukemia; above 100 µM in the experiment with MDA-MB-231 breast; above 100 µM in the experiment with SK-MEL-2 melanoma; above 100 µM with SN12C renal.
For the molecule `CC1CC[C@@]2(OC1)O[C@H]1[C@H](O)[C@H]3[C@@H]4CC[C@H]5C[C@@H](OC6OC(CO)C(OC7OC(CO)C(O)C(OC8OCC(O)C(O)C8O)C7OC7OC(CO)C(O)C(O)C7OC7OC(CO)C(O)C(O)C7O)C(O)C6O)[C@H](O)C[C@]5(C)[C@H]4CC[C@]3(C)[C@H]1[C@@H]2C` (stereo partly specified), the TGI with NCI-H460 lung, in the experiment with MALME-3M melanoma, with NCI-H23 lung, in the experiment with EKVX NSCLC, with SNB-75 CNS and in the experiment on OVCAR-8 ovarian was above 10 µM in each case. Further, the TGI was above 10 µM with A498 renal; above 10 µM in the experiment with MDA-MB-435; 3.08 µM with HL-60(TB) leukemia; 5.85 µM in the experiment with MDA-MB-231 breast; above 10 µM with SK-MEL-2 melanoma; above 10 µM in the experiment on SN12C renal. In addition, the TGI with UO-31 renal is above 10 µM; in the experiment with RPMI-8226 leukemia, 5.14 µM; in the experiment on OVCAR-3 ovarian, above 10 µM.
As for `O=C1CCCNn2c(nc3ncccc3c2=O)N1`, the TGI in the experiment with NCI-H460 lung, with MALME-3M melanoma, with NCI-H23 lung, in the experiment with EKVX NSCLC, in the experiment with SNB-75 CNS and with OVCAR-8 ovarian was above 100 µM each time. The TGI in the experiment on A498 renal, with MDA-MB-435, with HL-60(TB) leukemia, in the experiment on MDA-MB-231 breast, with SK-MEL-2 melanoma and in the experiment on UO-31 renal was above 100 µM in each case. Further, the TGI in the experiment with RPMI-8226 leukemia and with OVCAR-3 ovarian was above 100 µM each time.
With `C#CC(O)(c1nc2ccccc2s1)c1nc2ccccc2s1`, the TGI with MALME-3M melanoma was above 100 µM; in the experiment with NCI-H23 lung, 56.1 µM; in the experiment with EKVX NSCLC, 57.5 µM; in the experiment with OVCAR-8 ovarian, 51.5 µM; in the experiment with A498 renal it was 35.2 µM; with MDA-MB-435, 87.6 µM. Also, the TGI in the experiment on HL-60(TB) leukemia was determined as 46.1 µM; in the experiment on MDA-MB-231 breast, 39.7 µM; with SK-MEL-2 melanoma, 35.7 µM; with SN12C renal, 42.6 µM; in the experiment with UO-31 renal, 29.4 µM; in the experiment on RPMI-8226 leukemia, 76.8 µM. The TGI in the experiment with OVCAR-3 ovarian was determined as 40.8 µM.
Take `ClC(Cl)(Cl)C1CCOC1n1nnc2ccccc21` (stereo unspecified): the TGI is above 100 µM in the experiment on MALME-3M melanoma; above 100 µM with NCI-H23 lung; above 100 µM in the experiment with EKVX NSCLC; 54.3 µM with SNB-75 CNS; above 100 µM with OVCAR-8 ovarian; above 100 µM in the experiment with A498 renal. In addition, the TGI in the experiment with MDA-MB-435 is above 100 µM; with HL-60(TB) leukemia it was 58.2 µM; with MDA-MB-231 breast it was above 100 µM; with SK-MEL-2 melanoma it was above 100 µM; in the experiment on SN12C renal, above 100 µM; in the experiment on OVCAR-3 ovarian it was above 100 µM.
Take `O=C(CCN1CCOCC1)/C(=C/c1ccccc1)c1ccccc1`: the TGI in the experiment on NCI-H460 lung is 23.1 µM; with MALME-3M melanoma, 8.74 µM; in the experiment with NCI-H23 lung it was 14.1 µM; in the experiment with EKVX NSCLC it was 23.9 µM; in the experiment on SNB-75 CNS, 21.8 µM; in the experiment on OVCAR-8 ovarian, 4.1 µM. For the same molecule, the TGI in the experiment on A498 renal came out at 23.3 µM; with HL-60(TB) leukemia it was 4.19 µM; in the experiment on SK-MEL-2 melanoma it was 21.5 µM; in the experiment on SN12C renal, 14.5 µM; in the experiment with UO-31 renal, 28.1 µM; in the experiment on RPMI-8226 leukemia it was 8.05 µM. This molecule showed a TGI in the experiment on OVCAR-3 ovarian of 13.5 µM.
Turning to `O=C(/C(=C(/O)c1ccccc1)c1nc2ccccc2sc1=O)c1ccccc1`, the TGI is 30.5 µM in the experiment on NCI-H460 lung; above 100 µM in the experiment on MALME-3M melanoma; 68 µM with NCI-H23 lung; above 100 µM in the experiment with EKVX NSCLC; above 100 µM in the experiment on SNB-75 CNS; above 100 µM in the experiment with OVCAR-8 ovarian. The TGI in the experiment with A498 renal was above 100 µM; in the experiment on MDA-MB-435, above 100 µM; in the experiment on HL-60(TB) leukemia, 20.7 µM; in the experiment with MDA-MB-231 breast, above 100 µM; with SK-MEL-2 melanoma, 76 µM; in the experiment on SN12C renal, 90.5 µM. In addition, the TGI is 74.4 µM with UO-31 renal, 41.8 µM in the experiment on RPMI-8226 leukemia and 36.3 µM with OVCAR-3 ovarian.
With `COC(=O)[C@H](Cc1c[nH]c2ccccc12)NP(=O)(OCCC#N)OCC1OC(n2cc(C)c(=O)[nH]c2=O)CC1N=[N+]=[N-]` (stereo partly specified), the TGI with NCI-H460 lung, with MALME-3M melanoma, with NCI-H23 lung, in the experiment with EKVX NSCLC, in the experiment on SNB-75 CNS and with OVCAR-8 ovarian was above 100 µM throughout. Also, the TGI with MDA-MB-435, with HL-60(TB) leukemia, in the experiment with MDA-MB-231 breast, in the experiment on SK-MEL-2 melanoma, in the experiment on SN12C renal and in the experiment on UO-31 renal was above 100 µM each time. For the same molecule, the TGI in the experiment with RPMI-8226 leukemia and in the experiment on OVCAR-3 ovarian was above 100 µM in each case.
As to `COc1ccc(C2C3=C(N=C4SC(C(C)=O)=C(C)N42)c2ccccc2CC3)cc1` (stereo unspecified), the TGI in the experiment on NCI-H23 lung was above 100 µM; in the experiment with SNB-75 CNS, above 100 µM; in the experiment with OVCAR-8 ovarian, above 100 µM; in the experiment with A498 renal, above 100 µM; in the experiment with MDA-MB-435, above 100 µM; in the experiment on HL-60(TB) leukemia, 58 µM. For the same molecule, the TGI in the experiment with MDA-MB-231 breast was above 100 µM; in the experiment with SK-MEL-2 melanoma, above 100 µM; in the experiment on SN12C renal, above 100 µM; in the experiment on UO-31 renal, above 100 µM; with RPMI-8226 leukemia it was 29.9 µM; in the experiment with OVCAR-3 ovarian, above 100 µM.

For the origin of these results see PubChem BioAssay (NCI).
